In patent publication US10774064B2 (Cadent Therapeutics, Inc., priority 2016, dated 2020) one finds SC100 data, which are given here for 34 compounds.

For this assay, the target named is T1, small-conductance Ca2+-activated K+ channels (SK channels, subtype 2) (Homo sapiens, UniProt Q9H2S1).
T1 construct: expressed in transfected cells; host or cells: HEK293
Nature of the assay: whole-cell patch-clamp of ionic current through SK2 channels in HEK293 cells (SC100). It counts as cell-based. The note with it: concentration that increases the basal current by 100%; HEK293 cells expressing SK2 channels. The procedure, abridged:
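SC100, the concentration doubling basal current (a 100% increase), was taken from SK2 currents recorded by whole-cell patch-clamp in SK2-expressing HEK293 cells.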

Each structure is given as a SMILES string.

In the case of `Cc1cc(C)n(-c2cc(C(C)(C)O)cc(NC3CCC(F)(F)CC3)n2)n1` [Compound 206, 2-(2-((4,4-difluorocyclohexyl)amino)-6-(3,5-dimethyl-1H-pyrazol-1-yl)pyridin-4-yl)propan-2-ol], the SC100 result is “+ (+ means >1 uM)”. Next, `Cc1cc(C)n(-c2cc(C(C)O)cc(NC3CCC(F)(F)CC3)n2)n1` (stereo not shown) [Compound 207, 1-(2-((4,4-difluorocyclohexyl)amino)-6-(3,5-dimethyl-1H-pyrazol-1-yl)pyridin-4-yl)ethan-1-ol]: “+ (+ means >1 uM)”. As for `Cc1cc(NC2CCC(F)(F)CC2)nc(-n2ccc(CC#N)n2)n1` [Compound 208, 2-(1-(4-((4,4-difluorocyclohexyl)amino)-6-methylpyrimidin-2-yl)-1H-pyrazol-3-yl)acetonitrile], the SC100 entry is given as “++ (++ means 200 nM-1000 nM)”. To `Cc1cc(C)n(-c2nc(NC3CCC(F)(F)CC3)cc(OC(F)F)n2)n1` [Compound 209, N-(4,4-difluorocyclohexyl)-6-(difluoromethoxy)-2-(3,5-dimethyl-1H-pyrazol-1-yl)pyrimidin-4-amine] belongs “+ (+ means >1 uM)”; to `Cc1ccn(-c2nc(NC3CCC(F)(F)CC3)cc(OC3CN(C(=O)C(C)C)C3)n2)n1` [Compound 210, 1-(3-((6-((4,4-difluorocyclohexyl)amino)-2-(3-methyl-1H-pyrazol-1-yl)pyrimidin-4-yl)oxy)azetidin-1-yl)-2-methylpropan-1-one], “++ (++ means 200 nM-1000 nM)”; to `Cc1ccn(-c2nc(NC3CCC(F)(F)CC3)cc(OC3CN(C(=O)C(C)(C)C)C3)n2)n1` [Compound 211, 1-(3-((6-((4,4-difluorocyclohexyl)amino)-2-(3-methyl-1H-pyrazol-1-yl)pyrimidin-4-yl)oxy)azetidin-1-yl)-2,2-dimethylpropan-1-one], “+++ (+++ means <200 nM)”. As to `Cc1cc(NC2CCC(F)(F)CC2)nc(-n2ccc(C#N)n2)n1` [Compound 212, 1-(4-((4,4-difluorocyclohexyl)amino)-6-methylpyrimidin-2-yl)-1H-pyrazole-3-carbonitrile], the SC100 entry was “+ (+ means >1 uM)”.

For `Cc1cc(C)n(-c2nc(NC3CCC(F)(F)C3)cc(C(C)(C)O)n2)n1` (stereo not shown) [Compound 214, 2-(6-((3,3-difluorocyclopentyl)amino)-2-(3,5-dimethyl-1H-pyrazol-1-yl)pyrimidin-4-yl)propan-2-ol], the SC100 entry is “+ (+ means >1 uM)”.

Turning to `Cc1cc(NC2CCC(F)(F)CC2)nc(-n2ccc(C(C)(C)O)n2)n1` [Compound 215, 2-(1-(4-((4,4-difluorocyclohexyl)amino)-6-methylpyrimidin-2-yl)-1H-pyrazol-3-yl)propan-2-ol], the SC100 result is “+ (+ means >1 uM)”. To `Cc1cc(NC2CCC(F)(F)CC2)nc(-n2ccc(C(F)F)n2)n1` [Compound 216] belongs “++ (++ means 200 nM-1000 nM)”. Next, `Cc1cc(C)n(-c2nc(NC3CCC(F)(F)C3)cc(C3CC3)n2)n1` (stereo not shown) [Compound 217, 6-cyclopropyl-N-(3,3-difluorocyclopentyl)-2-(3,5-dimethyl-1H-pyrazol-1-yl)pyrimidin-4-amine]: “+ (+ means >1 uM)”; `Cc1cc(NC2CCC(F)(F)CC2)nc(-n2ccc(C(C)C)n2)n1` [Compound 218, N-(4,4-difluorocyclohexyl)-2-(3-isopropyl-1H-pyrazol-1-yl)-6-methylpyrimidin-4-amine]: “++ (++ means 200 nM-1000 nM)”; `COc1cccc(-c2nc(C)cc(NC3CCC(F)(F)CC3)n2)n1` [Compound 219, N-(4,4-difluorocyclohexyl)-2-(6-methoxypyridin-2-yl)-6-methylpyrimidin-4-amine]: “+ (+ means >1 uM)”. Next, `Cc1cc(NC2CCC(F)(F)CC2)nc(-n2nc(Br)cc2C)n1` [Compound 220, 2-(3-bromo-5-methyl-1H-pyrazol-1-yl)-N-(4,4-difluorocyclohexyl)-6-methylpyrimidin-4-amine]: “++ (++ means 200 nM-1000 nM)”; `Cc1cc(NC2CCC(F)(F)CC2)nc(-n2nc(C3CC3)cc2C)n1` [Compound 221, 2-(3-cyclopropyl-5-methyl-1H-pyrazol-1-yl)-N-(4,4-difluorocyclohexyl)-6-methylpyrimidin-4-amine]: “+ (+ means >1 uM)”; `Cc1cc(C)n(-c2cc(C3CC3)nc(NC3CCC(F)(F)C3)n2)n1` (stereo not shown) [Compound 222, 4-cyclopropyl-N-(3,3-difluorocyclopentyl)-6-(3,5-dimethyl-1H-pyrazol-1-yl)pyrimidin-2-amine]: “+ (+ means >1 uM)”. As for `Cc1cc(NC2CCC(F)(F)CC2)nc(-n2ccc(CF)n2)n1` [Compound 223], the SC100 result is given as “+ (+ means >1 uM)”. To `Cc1cccc(-c2nc(C)cc(NC3CCC(F)(F)CC3)n2)n1` [Compound 224, N-(4,4-difluorocyclohexyl)-6-methyl-2-(6-methylpyridin-2-yl)pyrimidin-4-amine] belongs “+ (+ means >1 uM)”; to `Cc1cc(C)n(-c2nc(NC3CCC(F)(F)C3)cc(C(C)O)n2)n1` (stereo not shown) [Compound 225, 1-(6-((3,3-difluorocyclopentyl)amino)-2-(3,5-dimethyl-1H-pyrazol-1-yl)pyrimidin-4-yl)ethan-1-ol], “+ (+ means >1 uM)”; to `Cc1cc(C)n(-c2cc(C3CC3)nc(NC3CCC(F)(F)CC3)n2)n1` [Compound 226, 4-cyclopropyl-N-(4,4-difluorocyclohexyl)-6-(3,5-dimethyl-1H-pyrazol-1-yl)pyrimidin-2-amine], “++ (++ means 200 nM-1000 nM)”. `Cc1cc(C)n(-c2nc(NC3CCC(F)(F)CC3)cc(N3CCOC(C(C)(C)O)C3)n2)n1` (stereo not shown) [Compound 227, 2-(4-(6-((4,4-difluorocyclohexyl)amino)-2-(3,5-dimethyl-1H-pyrazol-1-yl)pyrimidin-4-yl)morpholin-2-yl)propan-2-ol]: the SC100 result was “++ (++ means 200 nM-1000 nM)”. Next, `Cc1cc(C)n(-c2cc(NC3COC3)cc(NC3CCC(F)(F)CC3)n2)n1` [Compound 228, N2-(4,4-difluorocyclohexyl)-6-(3,5-dimethyl-1H-pyrazol-1-yl)-N4-(oxetan-3-yl)pyridine-2,4-diamine]: “++ (++ means 200 nM-1000 nM)”. Next, `Cc1cc(C)n(-c2cc(CF)cc(NC3CCC(F)(F)CC3)n2)n1` [Compound 229, N-(4,4-difluorocyclohexyl)-6-(3,5-dimethyl-1H-pyrazol-1-yl)-4-(fluoromethyl)pyridin-2-amine]: “++ (++ means 200 nM-1000 nM)”.

As for `Cc1cc(NC2CCC(F)(F)CC2)nc(-c2cccc(Cl)n2)n1` [Compound 230, 2-(6-chloropyridin-2-yl)-N-(4,4-difluorocyclohexyl)-6-methyl pyrimidin-4-amine], the SC100 entry is “+ (+ means >1 uM)”. To `Cc1cc(NC2CCC(F)(F)CC2)nc(-c2nc(C)cs2)n1` [Compound 231, N-(4,4-difluorocyclohexyl)-6-methyl-2-(4-methylthiazol-2-yl)pyrimidin-4-amine] belongs “++ (++ means 200 nM-1000 nM)”; to `Cc1ccn(-c2nc(NC3CCC(F)(F)CC3)cc(C3COCCC3O)n2)n1` (stereo not shown) [Compound 232, 3-(6-((4,4-difluorocyclohexyl)amino)-2-(3-methyl-1H-pyrazol-1-yl)pyrimidin-4-yl)tetrahydro-2H-pyran-4-ol], “+ (+ means >1 uM)”; to `Cc1cc(C)n(-c2nc(NCc3cn(C)nn3)cc(NC3CCC(F)(F)CC3)n2)n1` [Compound 233, N4-(4,4-difluorocyclohexyl)-2-(3,5-dimethyl-1H-pyrazol-1-yl)-N6-((1-methyl-1H-1,2,3-triazol-4-yl)methyl)pyrimidine-4,6-diamine], “++ (++ means 200 nM-1000 nM)”.

As to `Cc1cc(C)n(-c2cc(NCC(C)(C)C)cc(NC3CCC(F)(F)CC3)n2)n1` [Compound 234, N2-(4,4-difluorocyclohexyl)-6-(3,5-dimethyl-1H-pyrazol-1-yl)-N4-neopentylpyridine-2,4-diamine], the SC100 entry was “+ (+ means >1 uM)”. Next, `Cc1cc(C)n(-c2nc(NCc3cnn(C)n3)cc(NC3CCC(F)(F)CC3)n2)n1` [Compound 235, N4-(4,4-difluorocyclohexyl)-2-(3,5-dimethyl-1H-pyrazol-1-yl)-N6-((2-methyl-2H-1,2,3-triazol-4-yl)methyl)pyrimidine-4,6-diamine]: “++ (++ means 200 nM-1000 nM)”; `Cc1cc(NC2CCC(F)(F)CC2)nc(-n2cc(C)c(CO)n2)n1` [Compound 236, (1-(4-((4,4-difluorocyclohexyl)amino)-6-methylpyrimidin-2-yl)-4-methyl-1H-pyrazol-3-yl)methanol]: “+ (+ means >1 uM)”; `Cc1cc(NC2CCC(F)(F)CC2)nc(-n2nc(C(F)F)cc2C)n1` [Compound 237, N-(4,4-difluorocyclohexyl)-2-(3-(difluoromethyl)-5-methyl-1H-pyrazol-1-yl)-6-methylpyrimidin-4-amine]: “++ (++ means 200 nM-1000 nM)”. As for `Cc1cc(C)n(-c2cc(N(C)C3COC3)cc(NC3CCC(F)(F)CC3)n2)n1` [Compound 238, N2-(4,4-difluorocyclohexyl)-6-(3,5-dimethyl-1H-pyrazol-1-yl)-N4-methyl-N4-(oxetan-3-yl)pyridine-2,4-diamine], the SC100 result is on record as “++ (++ means 200 nM-1000 nM)”. Next, `Cc1cc(C)n(-c2cc(NC(C(N)=O)C(C)C)cc(NC3CCC(F)(F)CC3)n2)n1` (stereo not shown) [Compound 239, 2-((2-((4,4-difluorocyclohexyl)amino)-6-(3,5-dimethyl-1H-pyrazol-1-yl)pyridin-4-yl)amino)-3-methylbutanamide]: “++ (++ means 200 nM-1000 nM)”. Next, `Cc1cc(C)n(-c2cc(N(C)C3COC3)cc(N(C)C3CCC(F)(F)CC3)n2)n1` [Compound 240, N2-(4,4-difluorocyclohexyl)-6-(3,5-dimethyl-1H-pyrazol-1-yl)-N2,N4-dimethyl-N4-(oxetan-3-yl)pyridine-2,4-diamine]: “+ (+ means >1 uM)”.
